molecular target: T1, Angiotensin II receptor (AT-1) type-1 (Rattus norvegicus, UniProt P29089+P25095); test: Antagonist activity at AT1 receptor in Rattus norvegicus (rat) liver
T1 sequence (P29089 whole entry): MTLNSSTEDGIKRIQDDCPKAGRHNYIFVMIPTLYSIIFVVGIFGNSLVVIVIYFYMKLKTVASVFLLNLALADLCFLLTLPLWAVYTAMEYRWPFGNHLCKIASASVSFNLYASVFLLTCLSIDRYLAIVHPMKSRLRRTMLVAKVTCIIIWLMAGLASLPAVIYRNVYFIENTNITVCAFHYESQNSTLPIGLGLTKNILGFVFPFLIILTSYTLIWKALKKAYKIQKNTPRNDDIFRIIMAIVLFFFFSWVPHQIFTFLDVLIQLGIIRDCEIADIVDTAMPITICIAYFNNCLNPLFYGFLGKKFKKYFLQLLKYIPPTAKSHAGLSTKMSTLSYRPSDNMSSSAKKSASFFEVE
T1 sequence (P25095 whole entry): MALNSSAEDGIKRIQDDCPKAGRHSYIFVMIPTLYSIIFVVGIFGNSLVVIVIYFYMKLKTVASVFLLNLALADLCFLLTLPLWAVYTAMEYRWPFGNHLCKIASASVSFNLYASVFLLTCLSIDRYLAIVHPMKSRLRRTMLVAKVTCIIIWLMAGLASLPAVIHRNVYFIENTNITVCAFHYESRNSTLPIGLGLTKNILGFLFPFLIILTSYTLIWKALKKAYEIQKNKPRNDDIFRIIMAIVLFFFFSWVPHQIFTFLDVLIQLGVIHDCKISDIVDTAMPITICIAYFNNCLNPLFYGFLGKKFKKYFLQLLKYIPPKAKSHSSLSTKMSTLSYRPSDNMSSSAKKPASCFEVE

| Compound | pIC50 | IC50 [µM] |
| --- | --- | --- |
| Cc1nn(-c2ccccc2)c(Cc2ccc(-c3ccccc3-c3nn[nH]n3)cc2)c1C(=O)O | 7.102 | – |
| CCCCOC(=O)NS(=O)(=O)c1ccccc1-c1ccc(Cc2c(C(=O)O)cnn2CCCC)cc1 | 7.522 | 0.013 |
| CCCCn1nc(C)c(C(=O)O)c1Cc1ccc(-c2ccccc2S(=O)(=O)Nc2ccccc2)cc1 | 7.92 | 0.012 |
| CCCn1nc(C2CC2)c(C(=O)O)c1Cc1ccc(-c2ccccc2S(=O)(=O)Nc2ccccc2)cc1 | 7.744 | 0.018 |
| CCCn1nc(C2CC2)c(C(N)=O)c1Cc1ccc(-c2ccccc2S(=O)(=O)Nc2ccccc2)cc1 | 8.13 | 0.0074 |

The next lines start with the values.

| pIC50 | IC50 [µM] | Compound |
| --- | --- | --- |
| 8.567 | – | CCCCn1nc(C)c(C(=O)O)c1Cc1ccc(-c2ccccc2-c2nn[nH]n2)cc1 |
| 7.13 | 0.074 | CCCn1nc(C(C)C)c(C(=O)O)c1Cc1ccc(-c2ccccc2NS(=O)(=O)C(F)(F)F)cc1 |
| 6.886 | 0.13 | CCCn1nc(C(C)C)c(C(=O)O)c1Cc1ccc(-c2ccccc2C(=O)O)cc1 |
| 8.522 | 0.003 | CCCCc1nn(CCC)c(Cc2ccc(-c3ccccc3-c3nnn[nH]3)cc2)c1C(=O)O |

From ChEMBL document CHEMBL3045701, “Comprehensive structureactivity relationship analysis of substituted 5-(biphenyl-4-ylmethyl) pyrazoles derivatives as AT1 selective angiotensin II receptor antagonists: 2D and kNNMFA QSAR approach” (Med Chem Res, 2013)
